Here are results for 2 compounds from ChEMBL document CHEMBL3826976, “New Insights into Human 17β-Hydroxysteroid Dehydrogenase Type 14: First Crystal Structures in Complex with a Steroidal Ligand and with a Potent Nonsteroidal Inhibitor” (J Med Chem, 2016).

In the assay the target is T1, 17-beta-hydroxysteroid dehydrogenase 14 (Homo sapiens) (UniProt Q9BPX1).
T1 sequence (whole entry): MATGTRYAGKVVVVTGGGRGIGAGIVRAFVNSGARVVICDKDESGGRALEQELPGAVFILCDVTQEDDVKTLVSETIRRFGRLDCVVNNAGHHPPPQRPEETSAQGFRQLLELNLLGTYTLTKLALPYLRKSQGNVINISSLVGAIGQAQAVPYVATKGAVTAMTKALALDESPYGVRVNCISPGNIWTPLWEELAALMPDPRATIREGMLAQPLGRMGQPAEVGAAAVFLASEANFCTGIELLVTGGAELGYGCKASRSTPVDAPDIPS
Description: Binding affinity to human 17-beta-HSD14 assessed as change in melting temperature at 0.25 mM by thermal shift assay

For `C[C@]12CC[C@@H]3c4ccc(O)cc4CC[C@H]3[C@@H]1CC[C@@H]2O`, the ΔTm amounted to 1.5 °C.
The result for `C[C@]12CC[C@@H]3c4ccc(O)cc4CC[C@H]3[C@@H]1CCC2=O` reads 1.5 °C.
